In patent US20150306081A1, “Chemotherapy for Drug-Resistant Cancer Cells” (THE UNIVERSITY OF SYDNEY, priority 2012, published 2015):

Key:
[1] = tested on: Pgp-expressing KBV1 cells; test: MTT proliferation assay, KBV1 cells; type: cell-based, Human; conditions: 72 h
KBV1 cells = test: MTT cytotoxicity after transient knockdown of Pgp (MDR1 siRNA) in KBV1 cells; type: cell-based, Human; conditions: Pgp siRNA vs. Scr siRNA, 72 h
Experimental: The effect of anti-cancer agents on cellular proliferation was examined using the MTT [3-(4,5-dimethylthiazol-2-yl)-2,5-diphenyl tetrazolium] method. In this assay, 3×10^3 cells/well were seeded in 96-well plates in 100 μL of media. The next day, serially diluted drugs of interest were added. […] The cells were incubated at 37° C. in a humidified atmosphere containing 5% CO2 and 95% air for 72 h. After this incubation, 10 μL of MIT (5 mg/mL) was added to each well and the incubation continued at 37° C. for 2 h. After solubilization of the cells with 100 μL of 10% SDS-50% isobutanol in 10 mM HCl, the plates were read at 570 nm using a scanning multi-well spectrophotometer (Victor™ Multilabel Counter plate reader; Perkin Elmer, Australia). Results were analyzed to calculate the concentration of chelator or complex necessary to reduce the absorbance to 50% (IC50) of the control.
For all siRNA treatments against MDR1 (MDR1-siRNA; Cat #: 4123, Life Technologies), a siRNAlipofectamine mixture (50 nM MDR1 siRNA and 1/400 lipofectamine 2000) was added to the cells (at 30% confluency) and incubated for 72 h/37° C. prior to further experimentation. The effectiveness of Pgp knockdown was confirmed using western blot and also assessing DOX cytotoxicity via the MTT assay. As a control, scrambled siRNA (Scr siRNA; Life Technologies) was used at the same concentration as MDR1 siRNA.

[2] = tested on: Pgp-expressing KBV1 cells; test: Uptake of radio-labeled drug, KBV1 cells; type: cell-based, Human
Experimental: Cells were then washed on ice three times with ice-cold PBS and collected for analysis. Drug uptake was calculated as the number of drug molecules/cell. […] For studies using lysosomotropic agents, cells were pre-incubated with NH4Cl (5 mM), CLQ (100 μM) or MA (100 μM) for 30 min/37° C. prior to ^14C-Dp44mT uptake. […] For efflux assays, the same labeling procedure was conducted as in the uptake assay. […] After this procedure, the overlying media was removed using a Pasteur pipette and then placed in a counting vial. The cells were removed from the plate in 1 mL of PBS and then dispensed into a separate counting vial.

[3] = tested on: non-Pgp expressing KB31 cells; test: Uptake of radio-labeled drug, KB31 cells; type: cell-based, Human
Experimental: For the uptake assay, each 35 mm culture dish containing 5×10^5 cells was incubated with ^14C-doxorubicin, ^3H-vinblastine or ^14C-Dp44mT (all at 1 μCi) for 30 min/37° C. Cells were then washed on ice three times with ice-cold PBS and collected for analysis. Drug uptake was calculated as the number of drug molecules/cell. […] For studies using lysosomotropic agents, cells were pre-incubated with NH4Cl (5 mM), CLQ (100 μM) or MA (100 μM) for 30 min/37° C. prior to ^14C-Dp44mT uptake. […] For efflux assays, the same labeling procedure was conducted as in the uptake assay. […] After this procedure, the overlying media was removed using a Pasteur pipette and then placed in a counting vial. The cells were removed from the plate in 1 mL of PBS and then dispensed into a separate counting vial. The radiolabeled-drug efflux was calculated as a percentage of the total drug uptake by the cells found at zero time.

Pgp = Pgp (Homo sapiens, UniProt P08183); test: Rhodamine 123 accumulation assay, KBV1 cells; type: cell-based; conditions: 0.1 μM or above
Chain of Pgp (P08183 whole entry): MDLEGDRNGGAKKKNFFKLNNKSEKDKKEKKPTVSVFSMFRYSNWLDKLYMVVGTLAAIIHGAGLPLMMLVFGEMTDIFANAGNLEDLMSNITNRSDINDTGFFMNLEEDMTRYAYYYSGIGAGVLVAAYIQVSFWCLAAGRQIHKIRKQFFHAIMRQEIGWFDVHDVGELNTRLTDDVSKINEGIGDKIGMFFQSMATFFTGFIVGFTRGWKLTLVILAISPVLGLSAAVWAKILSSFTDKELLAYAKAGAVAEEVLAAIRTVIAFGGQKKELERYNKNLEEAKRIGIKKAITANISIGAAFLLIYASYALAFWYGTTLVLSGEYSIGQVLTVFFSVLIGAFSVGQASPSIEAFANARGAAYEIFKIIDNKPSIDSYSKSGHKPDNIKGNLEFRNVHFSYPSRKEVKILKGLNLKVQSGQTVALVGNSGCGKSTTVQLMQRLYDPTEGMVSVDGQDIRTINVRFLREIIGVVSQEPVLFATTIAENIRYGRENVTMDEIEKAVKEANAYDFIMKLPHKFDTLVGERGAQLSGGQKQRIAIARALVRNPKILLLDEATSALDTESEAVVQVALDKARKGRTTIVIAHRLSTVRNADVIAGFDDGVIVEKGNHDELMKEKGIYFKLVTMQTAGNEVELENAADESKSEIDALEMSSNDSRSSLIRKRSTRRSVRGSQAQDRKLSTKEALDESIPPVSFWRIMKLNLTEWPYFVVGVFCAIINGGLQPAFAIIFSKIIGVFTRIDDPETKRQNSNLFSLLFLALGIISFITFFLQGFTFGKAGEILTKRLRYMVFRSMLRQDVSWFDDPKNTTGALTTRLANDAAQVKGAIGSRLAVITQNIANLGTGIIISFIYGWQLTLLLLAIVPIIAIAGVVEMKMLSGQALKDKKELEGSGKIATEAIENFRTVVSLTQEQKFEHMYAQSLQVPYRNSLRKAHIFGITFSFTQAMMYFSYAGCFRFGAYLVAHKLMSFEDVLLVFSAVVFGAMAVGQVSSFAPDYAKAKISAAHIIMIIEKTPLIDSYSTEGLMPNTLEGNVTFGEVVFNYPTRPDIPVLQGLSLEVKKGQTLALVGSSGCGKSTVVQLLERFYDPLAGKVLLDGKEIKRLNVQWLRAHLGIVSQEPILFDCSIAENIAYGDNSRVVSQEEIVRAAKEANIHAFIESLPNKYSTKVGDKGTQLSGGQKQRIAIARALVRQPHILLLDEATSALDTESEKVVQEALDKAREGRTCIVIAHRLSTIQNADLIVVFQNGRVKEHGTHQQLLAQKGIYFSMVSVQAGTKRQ
Experimental: Cells were then harvested and resuspended in ice-cold PBS and kept on ice until flow cytometric analysis (see below).
The dyes, Rh123 and acridine orange were detected with the FACS Canto flow cytometer (BD Biosciences) and 10,000 events were acquired for every sample. Data analysis was performed using FlowJo software, version 7.5.5 (Tree Star Inc., Ashland, OR).

[4] = tested on: Pgp-expressing KBV1 cells; conditions: previously reported (ref. 5); cited from earlier work

Compound: CN(C)C(=S)NN=C(c1ccccn1)c1ccccn1 [Dp44mT, di-2-pyridylketone 4,4-dimethyl-3-thiosemicarbazone]
- more cytotoxic in drug-resistant KBV1 cells compared to KB31 cells [1]: 31 fold
- change of cytotoxicity in presence of Pgp inhibitors Val or Ela ([1]; KBV1 cells, Val 1 μM, Ela 0.1 μM): clear decrease in the cytotoxicity
- increase of IC50 by knockdown of Pgp (KBV1 cells): 10 fold
- accumulation after pre-treatment with lysosomotropic agents ([2]; KBV1 cells, NH4Cl, MA or CLQ pre-incubation 30 min/37° C.): significantly (p<0.001) decreased
- effect of Pgp inhibitors Val and Ela on uptake ([2]; KBV1 cells, Val 1 μM or Ela 0.1 μM pre-incubation, versus control): significantly (p<0.001) increased the uptake
- cellular accumulation in KBV1 cells relative to KB31 cells ([2]; control groups, 1 μCi): significantly (p<0.001) less
- accumulation after pre-treatment with lysosomotropic agents ([3]; NH4Cl, MA or CLQ pre-incubation): did not significantly affect
- effect of Pgp inhibitors Val and Ela on uptake ([3]; Val 1 μM or Ela 0.1 μM pre-incubation, versus control): did not significantly alter radiolabel uptake
- increased accumulation of Rh123 (Pgp): up to two fold
- cytotoxicity to KBV1 cells relative to KB31 cells [4]: increased cytotoxicity
